Reference: patent publication US20080090834A1, “SELECTIVE AZOLE PDE10A INHIBITOR COMPOUNDS” (Pfizer Inc, priority 2006, published 2008)
Structures can show the parent of a compound that is named as a salt.

target: T1, cloned rat PDE10A full-length enzyme (Rattus norvegicus, UniProt Q9QYJ6); assay: PDE10 enzyme inhibition, [3H]cAMP scintillation proximity assay; type: biochemical; settings: rat PDE10A from Sf9 cells, 20 nM [3H]cAMP, SPA beads, 20 minute incubation at room temperature
T1 construct: cloned rat PDE10A full-length enzyme grown in transfected Sf9 insect cells; made in house; host or cells: Sf9 insect cells
T1 sequence (Q9QYJ6 1-794): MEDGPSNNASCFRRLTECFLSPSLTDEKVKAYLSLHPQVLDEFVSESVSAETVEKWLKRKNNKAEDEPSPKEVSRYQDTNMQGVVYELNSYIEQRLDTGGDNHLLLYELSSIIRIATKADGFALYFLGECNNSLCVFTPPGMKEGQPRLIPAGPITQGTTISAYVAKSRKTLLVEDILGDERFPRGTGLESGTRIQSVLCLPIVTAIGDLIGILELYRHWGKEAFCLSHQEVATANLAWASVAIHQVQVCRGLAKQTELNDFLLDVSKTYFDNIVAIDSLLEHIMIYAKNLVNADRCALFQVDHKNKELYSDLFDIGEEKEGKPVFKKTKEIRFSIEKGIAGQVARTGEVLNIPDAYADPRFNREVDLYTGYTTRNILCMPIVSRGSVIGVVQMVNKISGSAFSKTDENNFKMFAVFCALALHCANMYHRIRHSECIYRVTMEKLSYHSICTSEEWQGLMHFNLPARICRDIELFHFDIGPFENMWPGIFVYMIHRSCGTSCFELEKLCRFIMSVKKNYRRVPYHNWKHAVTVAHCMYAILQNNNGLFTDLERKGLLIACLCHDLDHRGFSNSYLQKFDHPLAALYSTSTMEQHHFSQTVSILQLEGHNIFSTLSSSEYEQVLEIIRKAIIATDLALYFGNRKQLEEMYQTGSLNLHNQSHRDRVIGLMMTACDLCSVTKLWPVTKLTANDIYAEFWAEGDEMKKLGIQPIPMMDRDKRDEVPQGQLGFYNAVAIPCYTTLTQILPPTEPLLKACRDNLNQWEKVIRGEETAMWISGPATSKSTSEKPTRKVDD
Protocol: Compounds of the present invention were evaluated for ability to inhibit PDE10 enzyme with the following Assay procedure
The enzyme used in the procedure was cloned rat PDE10A full-length enzyme grown in transfected Sf9 insect cells. Cloned enzyme was extracted from homogenized cell pellets and stored frozen in homogenizing buffer until use. Compounds were initially dissolved in 100% DMSO and diluted out in 20 percent DMSO/water solution. Final concentration of DMSO in the assay was 2 percent as compounds were tested in triplicate in 96 well plates. Compound solution was placed in well, then tritiated cyclic AMP (New England Nuclear NET275) in assay buffer was added at 20 nM concentration. Then PDE10 enzyme in assay buffer of 50 mM Tris, 8.3 mM MgCl2, pH 7.5 at room temperature was added for a final assay volume of 100 ul. Concentration of enzyme was added such that less than 10 percent of [3H]cAMP at 20 nM was converted to detectable end product, [3H]AMP bound to SPA (Scintillation Proximity Assay) beads. Phosphodiesterase scintillation proximity yttrium silicate beads from Amersham Biosciences (RPNQ0150) were added (50 ul at 20 mg/ml) after a 20 minute incubation at room temperature. Zinc sulphate as a component of the beads stops the phosphodiesterase reaction.
Non-specific binding to SPA beads was determined by addition of 1 uM papaverine. Total conversion by enzyme without inhibitor of [3H]cAMP to [3H]AMP, as detected by scintillation of [3H]AMP bound to yttrium silicate beads, was determined in the presence of vehicle-only.

Row | IC50 [nM] | SMILES
1 | 1.48 | Cc1ccc(-n2cc(-c3nccs3)nc2-c2ccc(-n3ccc4cccnc43)cc2)cn1 [Example 27, 1-(4-(1-(6-methylpyridin-3-yl)-4-(thiazol-2-yl)-1H-imidazol-2-yl)phenyl)-1H-pyrrolo[2,3-b]pyridine]
2 | 42.9 | c1ccc(-n2cc(-c3cccnc3)c(-c3ccc(-n4ccc5cccnc54)cc3)n2)nc1 [Example 120, 1-(4-(1-(pyridin-2-yl)-4-(pyridin-3-yl)-1H-pyrazol-3-yl)phenyl)-1H-pyrrolo[2,3-b]pyridine]
3 | 1.89 | Cc1ccc(-n2cc(-c3ccccn3)nc2-c2ccc(-n3c(C)nc4cccnc43)cc2)cn1 [Example 57, 2-methyl-3-(4-(1-(6-methylpyridin-3-yl)-4-(pyridin-2-yl)-1H-imidazol-2-yl)phenyl)-3H-imidazo[4,5-b]pyridine]
4 | 0.831 | Cc1ccc(-n2cc(-c3ccccn3)nc2-c2ccc(-n3c(C(C)C)nc4cccnc43)cc2)cn1 [Example 59, 2-isopropyl-3-(4-(1-(6-methylpyridin-3-yl)-4-(pyridin-2-yl)-1H-imidazol-2-yl)phenyl)-3H-imidazo[4,5-b]pyridine]
5 | 97.8 | c1ccc(-c2cn(-c3cccnc3)c(-c3ccc(-n4cnc5ccccc54)cc3)n2)nc1 [Example 45, 1-(4-(4-(pyridin-2-yl)-1-(pyridin-3-yl)-1H-imidazol-2-yl)phenyl)-1H-benzo[d]imidazole]
6 | 5.82 | Cc1ccc(-n2cc(-c3ccccn3)nc2-c2ccc(-n3ccc4cnccc43)cc2)cn1 [Example 54, 1-(4-(1-(6-methylpyridine-3-yl)-4-(pyridin-2-yl)-1H-imidazol-2-yl)phenyl)-1H-pyrrolo[3,2-c]pyridine]
7 | 89.7 | Cc1cc(-n2cc(-c3ccncc3)nc2-c2ccc(-n3ccc4cccnc43)cc2)ccn1 [Example 69, 1-(4-(1-(2-methylpyridin-4-yl-4-(pyridin-4-yl)-1H-imidazol-2-yl)phenyl)-1H-pyrrolo-[2,3-b]pyridinebis-TFA salt]
8 | 16.4 | Cc1ccc(-n2cc(-c3cccc[n+]3[O-])nc2-c2ccc(-n3ccc4cccnc43)cc2)c[n+]1[O-] [Example 15]
9 | 0.695 | COc1nc2cccnc2n1-c1ccc(-c2nc(-c3cscn3)cn2-c2ccc(C)nc2)cc1 [Example 96, 2-methoxy-3-(4-(1-(6-methylpyridin-3-yl)-4-(thiazol-4-yl)-1H-imidazol-2-yl)phenyl)-3H-imidazo[4,5-b]pyridine]
10 | 18.6 | c1ccc(-c2nc(-c3cccnc3)c(-c3ccc(-n4ccc5cccnc54)cc3)[nH]2)nc1 [Example 114, 1-(4-(2-(pyridin-2-yl)-4-(pyridin-3-yl)-1H-imidazol-5-yl)phenyl)-1H-pyrrolo[2,3-b]pyridine]
11 | 544 | c1cncc(-n2cc(-c3nc4ccccc4s3)nc2-c2ccc(-n3ccc4cccnc43)cc2)c1 [Example 76, 1-(4-(4-benzo[d]thiazol-2-yl)-1-(pyridin-3-yl)-1H-b]pyridine]
12 | 156 | COc1ccnc2c(-c3ccc(-c4nc(-c5ccccn5)cn4-c4cccnc4)cc3)cc(C)cc12 [Example 77]
13 | 1.02 | CCOc1nc2cccnc2n1-c1ccc(-c2nc(-c3ccccn3)cn2-c2ccc(C)nc2)cc1 [Example 94, 2-ethoxy-3-(4-(1-(6-methylpyridin-3-yl)-4-(pyridin-2-yl)-1H-imidazol-2-yl)phenyl)-3H-imidazol[4,5-b]pyridine]
14 | 1.31 | CCOc1nc2cccnc2n1-c1ccc(-c2nc(-c3cscn3)cn2-c2ccc(C)nc2)cc1 [Example 100, 2-ethoxy-3-(4-(1-(6-methylpyridin-3-yl)-4-(thiazol-4-yl)-1H-imidazol-2-yl)phenyl)-3H-imidazo[4,5-b]pyridine]
15 | 134 | c1ccc(-n2nc(-c3ccc(-n4ccc5cccnc54)cc3)c(-c3cccnc3)n2)nc1 [Example 119, 1-(4-(2-(pyridin-2-yl)-5-(pyridin-3-yl)-2H-1,2,3-triazol-4-yl)phenyl)-1H-pyrrolo[2,3-b]pyridine]
16 | 21.1 | c1ccc(-c2cc(-c3cccnc3)nn2-c2ccc(-n3ccc4cccnc43)cc2)nc1 [Example 122, 1-(4-(5-(pyridin-2-yl)-3-(pyridin-3-yl)-1H-pyrazol-1-yl)phenyl)-1H-pyrrolo[2,3-b]pyridine TFA salt]
17 | 5.5 | Cc1ccc(-n2cc(-c3ccccn3)nc2-c2ccc(-n3cnc4cccnc43)cc2)cn1 (single isomer, unassigned) [Example 49, 3-(4-(1-(6-methylpyridin-3-yl)-4-(pyridin-2-yl)-1H-imidazol-2-yl)phenyl)-3H-imidazo[4,5-b]pyridine]
18 | 3.35 | C#Cc1cc(C)cnc1N [Example 22A, 3-ethynyl-5-methylpyridin-2-amine]
19 | 0.383 | COc1ccc(-n2cc(-c3nccs3)nc2-c2ccc(-n3ccc4cccnc43)cc2)cn1 [Example 29, 1-(4-(1-(6-methoxypyridin-3-yl)-4-(thiazol-2-yl)-1H-imidazol-2-yl)phenyl)-1H-pyrrolo[2,3-b]pyridine]
20 | < 2.72 | Cc1ccc(-n2cc(-c3ccccn3)nc2-c2ccc(-n3ccc4cc(Cl)cnc43)cc2)cn1 [Example 20, 5-chloro-1-(4-(4-pyridin-2-yl)-1-(6-methylpyridin-3-yl-1H-imidazol-2-yl)phenyl)-1H-pyrrolo[2,3-b]pyridine]
21 | 0.741 | CCCOc1nc2cccnc2n1-c1ccc(-c2nc(-c3ccccn3)cn2-c2ccc(C)nc2)cc1 [Example 91, 3-(4-(1-(6-methylpyridin-3-yl)-4-(pyridin-2-yl)-1H-imidazol-2-yl)phenyl)-2-propoxy-3H-imidazo[4,5-b]pyridine]
22 | 4.46 | c1cnc2c(c1)ccn2-c1ccc(-c2nc(-c3nccs3)cn2-c2ccncc2)cc1 [Example 25, 1-(4-(1-(pyridin-4-yl)-4-(thiazol-2-yl)-1H-imidazol-2-yl)phenyl)-1H-pyrrolo[2,3-b]pyridine]
23 | 9.33 | COc1ccc(-c2[nH]c(-c3cccs3)nc2-c2ccc(-n3cnc4ccccc43)cc2)cc1 [Example 111]
24 | 4.14 | Fc1cc(-n2ccc3cccnc32)ccc1-c1nc(-c2ccccn2)cn1-c1cccnc1 [Example 11, 1-(3-fluoro-4-(4-(pyridin-2-yl)-1-(pyridin-3-yl)-1H-imidazol-2-yl)phenyl)-1H-pyrrolo[2,3-b]pyridine]
25 | 1.48 | c1ccc(-c2cn(-c3ccc(-n4ccnc4)nc3)c(-c3ccc(-n4ccc5cccnc54)cc3)n2)nc1 [Example 8, 1-(4-(1-(6-(1H-imidazol-1-yl)pyridin-3-yl)-4-(pyridin-2-yl)-1H-imidazol-2-yl)phenyl)-1-H-pyrrolo[2,3-b]pyridine]
26 | 1610 | c1cnc2c(c1)ccn2-c1ccc(-c2nc(-c3nccs3)cn2-c2nccs2)cc1 [Example 3, 1-(4-(1,4-di(thiazol-2-yl)-1H-imidazol-2-yl)phenyl)-1H-pyrrolo[2,3-b)pyridine]
27 | 5.1 | Cc1cc(-n2cc(-c3cccnc3)nc2-c2ccc(-n3ccc4cccnc43)cc2)ccn1 [Example 68, 1-(4-(1-(2-methylpyridin-4-yl)-4-(pyridin-3-yl)-1H-imidazol-2-yl)phenyl)-1H-pyrrolo[2,3-b]pyridine bis-TFA salt]
28 | 65.4 | N#Cc1cccc2c1ccn2-c1ccc(-c2nc(-c3ccccn3)cn2-c2cccnc2)cc1 [Example 40, 1-(4-(4-(pyridin-2-yl)-1-(pyridin-3-yl)-1H-imidazol-2-yl)phenyl)-1H-indole-4-carbonitrile bis-TFA salt]
29 | < 2.45 | On1c(-c2cccs2)nc(-c2ccc(-n3ccc4cccnc43)cc2)c1-c1cnccn1 [Example 104, 1-(4-(1-hydroxy-5-(pyrazin-2-yl)-2-(thiophen-2-yl)-1H-imidazol-4-yl)phenyl)-1H-pyrrolo[2,3-b]pyridine]

Row | SMILES | IC50 [nM]
30 | Cc1cc(-c2nc(-c3cccs3)n(O)c2-c2cnccn2)ccc1-n1ccc2cccnc21 [Example 109, 1-(4-(1-hydroxy-5-(pyrazin-2-yl))-2-(thiophen-2-yl)-1H-imidazol-4-yl)-2-methylphenyl-1H-pyrrolo[2,3-b]pyridine] | 18.4
